Converted amounts (≈) assume the structure as drawn. Starred links: 1 amine or outer side, 2 acyl side, 3 side chain; linkers in the order of their positions; H or OH if unused. Non-standard residues stand in square brackets, D forms with d. Residues, ends and D or L forms follow the SMILES beside them. Gly(N-(CH2)3-guanidino) = N=C(N)NCCCNCC(=O)O; X1 = N=C(N)NCCN(CC(=O)[*:2])[*:1]; NhArg = N=C(N)NCCCCNCC(=O)O
Assays:
[1] = system: Salmonella enterica subsp. enterica; experiment: Antimicrobial activity against Salmonella enteritidis PD1 after 18 hrs by broth microdilution susceptibility test; assay type: functional, Salmonella enterica subsp. enterica serovar Enteritidis; settings: PD1, 18 h
[2] = Toxicity in human erythrocytes assessed as hemolytic activity at 30 uM after 60 mins; assay type: cell-based, Erythrocyte; settings: read-out: Activity
Escherichia coli [3] = experiment: Antimicrobial activity against Escherichia coli ML35 after 18 hrs by broth microdilution susceptibility test; assay type: functional; settings: ML35, 18 h
[4] = Toxicity in human erythrocytes assessed as hemolytic activity at 300 uM after 60 mins; assay type: cell-based, Erythrocyte; settings: read-out: Activity
[5] = system: Salmonella enterica subsp. enterica; experiment: Antimicrobial activity against Salmonella enteritidis D5 after 18 hrs by broth microdilution susceptibility test; assay type: functional, Salmonella enterica subsp. enterica serovar Enteritidis; settings: D5, 18 h
Klebsiella pneumoniae = experiment: Antimicrobial activity against Klebsiella pneumoniae 22 after 18 hrs by broth microdilution susceptibility test; assay type: functional; settings: Klebsiella pneumoniae, 22, 18 h
[6] = system: Salmonella enterica subsp. enterica; experiment: Antimicrobial activity against Salmonella Typhimurium ATCC 14028 after 18 hrs by broth microdilution susceptibility test; assay type: functional, Salmonella enterica subsp. enterica serovar Typhimurium; settings: ATCC 14028, 18 h
[7] = Membrane permeabilization in eukaryotic membrane model consisting of single unilamellar vesicle of L-alpha-phosphatidylcholine-cholesterol assessed as 5(6)-carboxyfluorescein release at high peptide-to-lipid ratio after 50 mins by fluorescence assay; assay type: ADME, cell membranes
Escherichia coli [8] = experiment: Antimicrobial activity against Escherichia coli O18K1H7 after 18 hrs by broth microdilution susceptibility test; assay type: functional; settings: O18K1H7, 18 h
[9] = Membrane permeabilization in eukaryotic membrane model consisting of single unilamellar vesicle of L-alpha-phosphatidylcholine-cholesterol assessed as 5(6)-carboxyfluorescein release at high peptide-to-lipid ratio after 20 mins by fluorescence assay; assay type: ADME, cell membranes
Escherichia coli [10] = experiment: Antimicrobial activity against Escherichia coli ATCC 25922 after 18 hrs by broth microdilution susceptibility test; assay type: functional; settings: ATCC 25922, 18 h
[11] = Chemical stability assessed as compound degradation at 2 mg/mL after 24 hrs by HPLC and ESI-MS analysis in presence of trypsin; assay type: physicochemical; settings: isolated protein

CC[C@H](C)[C@H](NC(=O)[C@H](Cc1ccc(O)cc1)NC(=O)[C@@H](NC(=O)[C@@H]1CCCN1C(=O)[C@H](CCCNC(=N)N)NC(=O)[C@H](CC(N)=O)NC(=O)[C@H](CC(N)=O)NC(=O)CN)C(C)C)C(=O)N1CCC[C@H]1C(=O)N[C@@H](CCC(N)=O)C(=O)N1CCC[C@H]1C(=O)N(CCNC(=N)N)CC(=O)N1CCC[C@H]1C(=O)N1CCC[C@H]1C(=O)N[C@@H](Cc1cnc[nH]1)C(=O)N1CCC[C@H]1C(=O)N[C@@H](CCCNC(=N)N)C(=O)N[C@@H](CC(C)C)C(=O)O (H-GNNRPVYIPQP[X1]PPHPRL-OH)
MIC [1]: 64 µM (≈ 134 µg/mL) | hemolysis at 1 h, 30 µM [2]: ≤ 2% | MIC (Escherichia coli [3]): 16 µM (≈ 33.5 µg/mL) | hemolysis at 1 h, 300 µM [4]: 0.87% | MIC [5]: 64 µM (≈ 134 µg/mL) | MIC (Klebsiella pneumoniae): > 128 µM | MIC [6]: 32 µM (≈ 67 µg/mL) | Activity [7]: Not Active | MIC (Escherichia coli [8]): 32 µM (≈ 67 µg/mL) | Activity [9]: Not Active | MIC (Escherichia coli [10]): 32 µM (≈ 67 µg/mL)

CC[C@H](C)[C@H](NC(=O)[C@H](Cc1ccc(O)cc1)NC(=O)[C@@H](NC(=O)[C@@H]1CCCN1C(=O)[C@H](CCCNC(=N)N)NC(=O)[C@H](CC(N)=O)NC(=O)[C@H](CC(N)=O)NC(=O)CN)C(C)C)C(=O)N1CCC[C@H]1C(=O)N[C@@H](CCC(N)=O)C(=O)N1CCC[C@H]1C(=O)N(CCCCNC(=N)N)CC(=O)N1CCC[C@H]1C(=O)N[C@@H](Cc1cnc[nH]1)C(=O)N1CCC[C@H]1C(=O)N[C@@H](CCCNC(=N)N)C(=O)N[C@@H](CC(C)C)C(=O)O (H-GNNRPVYIPQP[NhArg]PHPRL-OH)
MIC [1]: 64 µM (≈ 130 µg/mL) | hemolysis at 1 h, 30 µM [2]: ≤ 2% | MIC (Escherichia coli [3]): 16 µM (≈ 32.4 µg/mL) | hemolysis at 1 h, 300 µM [4]: 1.31% | MIC [5]: 64 µM (≈ 130 µg/mL) | MIC (Klebsiella pneumoniae): > 128 µM | MIC [6]: 32 µM (≈ 64.8 µg/mL) | Activity [7]: Not Active | MIC (Escherichia coli [8]): 32 µM (≈ 64.8 µg/mL) | Activity [9]: Not Active | MIC (Escherichia coli [10]): 32 µM (≈ 64.8 µg/mL)

CC[C@H](C)[C@H](NC(=O)[C@H](Cc1ccc(O)cc1)NC(=O)[C@@H](NC(=O)[C@@H]1CCCN1C(=O)CN(CCCNC(=N)N)C(=O)[C@H](CC(N)=O)NC(=O)[C@H](CC(N)=O)NC(=O)CN)C(C)C)C(=O)N1CCC[C@H]1C(=O)N[C@@H](CCC(N)=O)C(=O)N1CCC[C@H]1C(=O)N(CCCNC(=N)N)CC(=O)N1CCC[C@H]1C(=O)N1CCC[C@H]1C(=O)N[C@@H](Cc1cnc[nH]1)C(=O)N1CCC[C@H]1C(=O)N(CCCNC(=N)N)CC(=O)N[C@@H](CC(C)C)C(=O)O (H-GNN[Gly(N-(CH2)3-guanidino)]PVYIPQP[Gly(N-(CH2)3-guanidino)]PPHP[Gly(N-(CH2)3-guanidino)]L-OH)
hemolysis at 1 h, 300 µM [4]: 0.06% | MIC (Escherichia coli [8]): > 128 µM

CC[C@H](C)[C@H](NC(=O)[C@H](Cc1ccc(O)cc1)NC(=O)[C@@H](NC(=O)[C@@H]1CCCN1C(=O)[C@H](CCCNC(=N)N)NC(=O)[C@H](CC(N)=O)NC(=O)[C@H](CC(N)=O)NC(=O)CN)C(C)C)C(=O)N1CCC[C@H]1C(=O)N[C@@H](CCC(N)=O)C(=O)N1CCC[C@H]1C(=O)N[C@@H](CCCNC(=N)N)C(=O)N1CCC[C@H]1C(=O)N[C@@H](Cc1cnc[nH]1)C(=O)N1CCC[C@H]1C(=O)N[C@@H](CCCNC(=N)N)C(=O)N[C@@H](CC(C)C)C(=O)O (H-GNNRPVYIPQPRPHPRL-OH)
hemolysis at 1 h, 30 µM [2]: ≤ 2% | MIC (Klebsiella pneumoniae): > 128 µM | MIC [6]: > 128 µM | Activity [7]: Not Active | Activity [9]: Not Active | MIC (Escherichia coli [10]): 128 µM (≈ 257 µg/mL)

CC[C@H](C)[C@H](NC(=O)[C@H](Cc1ccc(O)cc1)NC(=O)[C@@H](NC(=O)[C@@H]1CCCN1C(=O)[C@H](CCCNC(=N)N)NC(=O)[C@H](CC(N)=O)NC(=O)[C@H](CC(N)=O)NC(=O)CN)C(C)C)C(=O)N1CCC[C@H]1C(=O)N[C@@H](CCC(N)=O)C(=O)N1CCC[C@H]1C(=O)N[C@@H](CCCNC(=N)N)C(=O)N1CCC[C@H]1C(=O)N1CCC[C@H]1C(=O)N[C@@H](Cc1cnc[nH]1)C(=O)N1CCC[C@H]1C(=O)N(CCCNC(=N)N)CC(=O)N[C@@H](CC(C)C)C(=O)O (H-GNNRPVYIPQPRPPHP[Gly(N-(CH2)3-guanidino)]L-OH)
MIC [1]: > 128 µM | hemolysis at 1 h, 30 µM [2]: ≤ 2% | Stability [11]: Stable | MIC (Escherichia coli [3]): > 128 µM | hemolysis at 1 h, 300 µM [4]: 0.44% | MIC [5]: > 128 µM | MIC (Klebsiella pneumoniae): > 128 µM | MIC [6]: > 128 µM | Activity [7]: Not Active | MIC (Escherichia coli [8]): > 128 µM | Activity [9]: Not Active | MIC (Escherichia coli [10]): > 128 µM

From ChEMBL document CHEMBL1152983, “Substitution of the arginine/leucine residues in apidaecin Ib with peptoid residues: effect on antimicrobial activity, cellular uptake, and proteolytic degradation” (J Med Chem, 2009)
